Laboratory results as given in US10077261B2, “Imidazolin-5-one derivative useful as FASN inhibitors for the treatment of cancer” (Janssen Pharmaceutica NV, priority 2012, dated 2018).

Legend:
[1] = test system: PC-3M-Luc-C6 prostate cells; experiment: In vitro PC-3M-Luc-C6 prostate cell proliferation assay in lipid reduced medium; assay type: cell-based; details: 96 h, read-out: pIC50 PC-3M-Luc-C6 prostate cell (converted)
[2] = target: Fatty Acid Synthase Keto-reductase Domain (FASN KR) (Homo sapiens, UniProt P49327); experiment: Fatty Acid Synthase keto-reductase domain (FASN KR) inhibition, NADPH oxidation at 340 nm
Method: After 20 minutes incubation at room temperature the plate was measured again (T2).
The decrease in absorbance was calculated as (Absorbance before incubation T1)−(Absorbance following incubation T2).
A plot of Controlmin versus test compound concentration was fitted to a 4-parameter logistic curve using a non-linear least squares regression method.

[3] = test system: LNCaP-Vancouver prostate cells; experiment: In vitro LNCaP Vancouver prostate cell proliferation assay in lipid reduced medium; assay type: cell-based; details: read-out: pIC50 LNCaP_Vancouver prostate cell (converted)
[4] = test system: A2780 ovarian cells; experiment: A2780 ovarian cell proliferation assay in lipid reduced medium, without palmitate (MTT); assay type: cell-based; details: Homo sapiens, A2780, 96 h; read-out: pIC50 A2780 Ovarian Cell, Without Palmitate (converted)
[5] = test system: A2780 ovarian cells; experiment: A2780 ovarian cell proliferation assay in lipid reduced medium, with palmitate (MTT); assay type: cell-based; details: Homo sapiens, A2780, 96 h; read-out: pIC50 A2780 Ovarian Cell, With Palmitate (converted)
Summary of the method: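 Seeded cells were switched next day to lipid-reduced serum, exposed to compound and 25 μM palmitate complexed with fatty-acid-free BSA, and incubated 96 h. Proliferation was then determined by MTT absorbance at 544 nm, with a best-fit curve of signal against concentration.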

[6] = target: T1, hFASN enzyme (full length) (Homo sapiens, UniProt P49327); experiment: Fatty Acid Synthase (FASN) inhibition scintillation proximity assay; assay type: biochemical; details: for inhibition at 10 µM: read-out: Human FASN % inhibition @ 10 μM, 10 μM test compound; for IC50: read-out: Human FASN pIC50 (converted)
T1 construct: 10 μL hFASN enzyme (full length, 300 ng, purified in house); made in house
Summary of the method: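 Full-length in-house purified enzyme (300 ng) was tested in 100 mM KH2PO4 pH 7.5, 1 mM DTT with ³H-acetyl-CoA and malonyl-CoA as substrates; compounds ranged 0.01–30 μM. Reactions were stopped with streptavidin imaging beads, read by LEADseeker at 610 nm, and fitted to a 4-parameter logistic curve.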

Sequence of Fatty Acid Synthase Keto-reductase Domain (FASN KR) (P49327 whole entry, the tested form may be a part): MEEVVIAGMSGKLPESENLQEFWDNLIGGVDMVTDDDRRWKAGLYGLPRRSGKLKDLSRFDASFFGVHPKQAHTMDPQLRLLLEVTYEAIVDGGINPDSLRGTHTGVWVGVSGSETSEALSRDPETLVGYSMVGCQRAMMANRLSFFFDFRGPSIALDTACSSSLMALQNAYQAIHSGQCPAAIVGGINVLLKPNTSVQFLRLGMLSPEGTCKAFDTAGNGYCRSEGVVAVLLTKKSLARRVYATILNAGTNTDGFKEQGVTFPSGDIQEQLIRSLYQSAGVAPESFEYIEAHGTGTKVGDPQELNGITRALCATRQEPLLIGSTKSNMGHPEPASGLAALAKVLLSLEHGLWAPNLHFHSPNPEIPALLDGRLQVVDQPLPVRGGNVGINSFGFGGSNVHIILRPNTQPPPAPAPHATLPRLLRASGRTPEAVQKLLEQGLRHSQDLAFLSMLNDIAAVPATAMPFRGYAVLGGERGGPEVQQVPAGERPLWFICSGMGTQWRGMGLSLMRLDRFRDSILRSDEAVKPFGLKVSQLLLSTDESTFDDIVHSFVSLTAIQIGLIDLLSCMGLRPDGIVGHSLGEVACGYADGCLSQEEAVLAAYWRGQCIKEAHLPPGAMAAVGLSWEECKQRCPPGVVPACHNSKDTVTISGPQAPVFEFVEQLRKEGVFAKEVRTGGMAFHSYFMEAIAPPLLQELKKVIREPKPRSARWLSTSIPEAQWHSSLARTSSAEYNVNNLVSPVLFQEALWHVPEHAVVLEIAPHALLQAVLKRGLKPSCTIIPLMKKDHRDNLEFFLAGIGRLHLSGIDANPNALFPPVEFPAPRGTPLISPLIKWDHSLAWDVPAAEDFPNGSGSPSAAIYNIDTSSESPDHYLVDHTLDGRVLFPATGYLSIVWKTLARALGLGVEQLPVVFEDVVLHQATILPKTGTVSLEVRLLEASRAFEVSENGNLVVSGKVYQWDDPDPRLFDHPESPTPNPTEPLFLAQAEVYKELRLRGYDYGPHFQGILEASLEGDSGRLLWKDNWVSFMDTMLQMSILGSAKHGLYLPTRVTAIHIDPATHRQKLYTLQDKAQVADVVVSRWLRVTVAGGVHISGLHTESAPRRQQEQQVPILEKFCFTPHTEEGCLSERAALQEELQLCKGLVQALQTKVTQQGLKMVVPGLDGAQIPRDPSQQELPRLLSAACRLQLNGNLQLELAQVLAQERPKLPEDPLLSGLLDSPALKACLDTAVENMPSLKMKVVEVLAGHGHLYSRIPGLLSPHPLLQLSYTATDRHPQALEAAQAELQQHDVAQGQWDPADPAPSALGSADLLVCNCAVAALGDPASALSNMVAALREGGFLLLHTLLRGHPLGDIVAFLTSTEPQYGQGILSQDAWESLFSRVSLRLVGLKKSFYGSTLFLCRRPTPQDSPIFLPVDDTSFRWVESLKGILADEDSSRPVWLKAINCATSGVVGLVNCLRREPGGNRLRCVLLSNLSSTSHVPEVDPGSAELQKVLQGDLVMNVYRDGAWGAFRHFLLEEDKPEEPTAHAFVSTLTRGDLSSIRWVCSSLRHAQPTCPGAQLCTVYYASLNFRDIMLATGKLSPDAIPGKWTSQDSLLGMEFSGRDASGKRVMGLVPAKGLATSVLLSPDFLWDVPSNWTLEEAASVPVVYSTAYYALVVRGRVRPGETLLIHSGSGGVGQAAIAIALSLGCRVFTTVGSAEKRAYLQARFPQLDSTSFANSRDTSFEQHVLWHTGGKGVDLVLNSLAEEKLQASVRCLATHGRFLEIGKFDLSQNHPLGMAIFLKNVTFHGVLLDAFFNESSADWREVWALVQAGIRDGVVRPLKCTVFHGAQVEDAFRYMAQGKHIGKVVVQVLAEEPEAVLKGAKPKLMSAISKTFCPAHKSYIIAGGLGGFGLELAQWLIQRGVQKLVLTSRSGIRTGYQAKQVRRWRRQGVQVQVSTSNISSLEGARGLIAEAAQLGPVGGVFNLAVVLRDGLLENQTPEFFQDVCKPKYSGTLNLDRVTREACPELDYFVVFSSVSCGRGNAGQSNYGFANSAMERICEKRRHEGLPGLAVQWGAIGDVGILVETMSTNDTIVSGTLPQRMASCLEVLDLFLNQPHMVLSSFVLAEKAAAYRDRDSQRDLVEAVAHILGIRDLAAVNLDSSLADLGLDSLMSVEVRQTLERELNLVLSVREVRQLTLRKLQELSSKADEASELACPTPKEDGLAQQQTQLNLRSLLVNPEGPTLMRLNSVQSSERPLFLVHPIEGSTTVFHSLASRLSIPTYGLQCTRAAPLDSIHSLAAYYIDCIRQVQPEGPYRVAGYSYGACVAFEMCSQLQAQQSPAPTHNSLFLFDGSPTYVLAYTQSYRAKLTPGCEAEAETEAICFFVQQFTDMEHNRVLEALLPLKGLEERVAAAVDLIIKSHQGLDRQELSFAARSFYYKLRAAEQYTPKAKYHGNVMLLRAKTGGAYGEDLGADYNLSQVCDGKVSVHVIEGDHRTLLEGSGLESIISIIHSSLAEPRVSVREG
T1 sequence (P49327 whole entry): as the sequence (P49327 whole entry, the tested form may be a part) above

| SMILES | IC50 [1] [nM] | IC50 [2] [nM] | IC50 [3] [nM] | IC50 [4] [nM] | IC50 [5] [nM] | inhibition at 10 µM [6] [%] | IC50 [6] [nM] |
| --- | --- | --- | --- | --- | --- | --- | --- |
| O=C(C1CC1)N1CC(CN2C(=O)C3(CC3)N=C2c2ccc(-c3cc4ccccc4cn3)cc2)C1 [compound 531, 6-{[1-(Cyclopropylcarbonyl)azetidin-3-yl]methyl}-5-(4-isoquinolin-3-ylphenyl)-4,6-diazaspiro[2.4]hept-4-en-7-one] | 302 | 537 | 1350 | 148 | > 10000 | 96 | 170 |
| O=C(C1CC1)N1CC[C@@H](CN2C(=O)C3(CC3)N=C2c2ccc(-c3ccc4sccc4c3)c(F)c2)C1 [compound 233, (R)-5-(4-(benzo[b]thiophen-5-yl)-3-fluorophenyl)-6-((1-(cyclopropanecarbonyl)pyrrolidin-3-yl)methyl)-4,6-diazaspiro[2.4]hept-4-en-7-one] | 575 | 93.3 | 1700 | 912 | > 10000 | 110 | 50.1 |
| O=C(C1CC1)N1CC(CN2C(=O)C3(CC3)N=C2c2ccc(-c3ccc4ccc(F)cc4c3)cc2F)C1 [compound 324, 6-((1-(cyclopropanecarbonyl)azetidin-3-yl)methyl)-5-(2-fluoro-4-(7-fluoronaphthalen-2-yl)phenyl)-4,6-diazaspiro[2.4]hept-4-en-7-one] | ~30.2 | 67.6 | 158 | 19.5 | > 10000 | 105 | 32.4 |
| Cc1cc(-c2ccc3cc[nH]c3c2)ccc1C1=NC2(CC2)C(=O)N1C[C@@H]1CCN(C(=O)C2CC2)C1 [compound 305, (R)-5-(4-(1H-indol-6-yl)-2-methylphenyl)-6-((1-(cyclopropanecarbonyl)pyrrolidin-3-yl)methyl)-4,6-diazaspiro[2.4]hept-4-en-7-one] | 28.8 | 30.9 | 263 | 40.7 | > 10000 | 103 | 25.1 |
| Cn1cnc2cc(-c3ccc(C4=NC5(CC5)C(=O)N4CC4CN(C(=O)C5(C)CC5)C4)c(F)c3)ccc21 [compound 378, 5-(2-fluoro-4-(1-methyl-1H-benzo[d]imidazol-5-yl)phenyl)-6-((1-(1-methylcyclopropanecarbonyl)azetidin-3-yl)methyl)-4,6-diazaspiro[2.4]hept-4-en-7-one] | 10.5 | 45.7 | 74.1 | ~5.13 | > 10000 | 100 | 38.9 |
| O=C(C1CC1)N1CC[C@@H](CN2C(=O)C3(CC3)N=C2c2ccc(-c3ccc4c(c3)CCO4)cc2)C1 [compound 462, 6-{[(3R)-1-(Cyclopropylcarbonyl)pyrrolidin-3-yl]methyl}-5-[4-(2,3-dihydro-1-benzofuran-5-yl)phenyl]-4,6-diazaspiro[2.4]hept-4-en-7-one] | 1170 | 912 | 2340 | 1860 | > 10000 | 98 | 158 |
| Cn1ncc2cc(-c3ccc(C4=NC5(CCN(C(=O)C(F)(F)F)CC5)C(=O)N4C[C@@H]4CCN(C(=O)C5CC5)C4)cc3)ccc21 [compound 752, 3-{[(3R)-1-(Cyclopropylcarbonyl)pyrrolidin-3-yl]methyl}-2-[4-(1-methyl-1H-indazol-5-yl)phenyl]-8-(trifluoroacetyl)-1,3,8-triazaspiro[4.5]dec-1-en-4-one] | 1910 | 1050 | 3980 | 1620 | > 10000 | 91 | 776 |
| Cc1sc2ccc(-c3ccc(C4=NC5(CC5)C(=O)N4C[C@@H]4CCN(C(=O)C5CC5)C4)c(F)c3)cc2c1C [compound 245] | ~646 | 37.2 | ~1700 | 1550 | > 10000 | 98 | 32.4 |
| Cn1cc(-c2ccc(-c3ccc(C4=NC5(CC5)C(=O)N4CC4CN(C(=O)C5CC5)C4)cc3)nc2)cn1 [compound 534, 6-{[1-(Cycloprropylcarbonyl)azetidin-3-yl]methyl}-5-{4-[5-(1-methyl-1H-pyrazol-4-yl)pyridin-2-yl]phenyl}-4,6-diazaspiro[2.4]hept-4-en-7-one] | 1000 | 1380 | ~5620 | 776 | > 10000 | 95 | 162 |

The remaining compounds from weak to strong by IC50 [2], led by results:

| IC50 [1] [nM] | IC50 [2] [nM] | IC50 [3] [nM] | IC50 [4] [nM] | IC50 [5] [nM] | inhibition at 10 µM [6] [%] | IC50 [6] [nM] | SMILES |
| --- | --- | --- | --- | --- | --- | --- | --- |
| > 10000 | 1550 | 3160 | 1820 | > 10000 | 94 | 513 | N#Cc1ccc2ccc(-c3ccc(C4=NC5(CC5)C(=O)N4CC4CN(C(=O)C5CC5)C4)c(F)c3)cc2c1 [compound 616, 7-[4-(6-{[1-(Cyclopropylcarbonyl)azetidin-3-yl]methyl}-7-oxo-4,6-diazaspiro[2.4]hept-4-en-5-yl)-3-fluorophenyl]naphthalene-2-carbonitrile] |
| ~141 | 174 | ~513 | 87.1 | > 10000 | 105 | 38 | Cc1cc(-c2ccc3[nH]ncc3c2)ccc1C1=NC2(CC2)C(=O)N1CC1CN(C(=O)C2CC2)C1 [compound 293, 5-(4-(1H-indazol-5-yl)-2-methylphenyl)-6-((1-(cyclopropanecarbonyl)azetidin-3-yl)methyl)-4,6-diazaspiro[2.4]hept-4-en-7-one] |
| 44.7 | 158 | 501 | 74.1 | > 10000 | 108 | 37.2 | Cn1ncc2cc(-c3ccc(C4=NC5(CC5)C(=O)N4CC4CN(C(=O)C5(O)CC5)C4)c(Cl)c3)ccc21 [compound 264, 5-(2-chloro-4-(1-methyl-1H-indazol-5-yl)phenyl)-6-((1-(1-hydroxycyclopropanecarbonyl)azetidin-3-yl)methyl)-4,6-diazaspiro[2.4]hept-4-en-7-one] |
| 53.7 | 115 | 102 | 36.3 | > 10000 | 94 | 97.7 | Cc1cc(-c2ccc3c(cnn3C)c2)ccc1C1=NC2(CC2)C(=O)N1CC1CN(C(=O)C2CCCO2)C1 (centres unmarked) [compound 205, 5-(2-methyl-4-(1-methyl-1H-indazol-5-yl)phenyl)-6-((1-(tetrahytdro-furan-2-carbonyl)azetidin-3-yl)methyl)-4,6-diazaspiro[2.4]hept-4-en-7-one] |
| ~18.2 | 61.7 | 50.1 | 10.5 | ~4680 | 102 | 24 | O=C(N1CC(CN2C(=O)C3(CC3)N=C2c2ccc(-c3ccc4cc(Cl)ccc4c3)cc2F)C1)C1(O)CC1 [compound 383, 5-(4-(6-chloronaphthalen-2-yl)-2-fluorophenyl)-6-((1-(1-hydroxycyclopropanecarbonyl)azetidin-3-yl)methyl)-4,6-diazaspiro[2.4]hept-4-en-7-one] |
